We go through 16 molecules from ChEMBL document CHEMBL4402591, “Imidazo[1,2-a]pyridine Derivatives as Aldehyde Dehydrogenase Inhibitors: Novel Chemotypes to Target Glioblastoma Stem Cells” (J Med Chem, 2020).

Experiment [1] deals with T1, Retinaldehyde dehydrogenase 3 (Homo sapiens, UniProt P47895).
T1 sequence (P47895 whole entry): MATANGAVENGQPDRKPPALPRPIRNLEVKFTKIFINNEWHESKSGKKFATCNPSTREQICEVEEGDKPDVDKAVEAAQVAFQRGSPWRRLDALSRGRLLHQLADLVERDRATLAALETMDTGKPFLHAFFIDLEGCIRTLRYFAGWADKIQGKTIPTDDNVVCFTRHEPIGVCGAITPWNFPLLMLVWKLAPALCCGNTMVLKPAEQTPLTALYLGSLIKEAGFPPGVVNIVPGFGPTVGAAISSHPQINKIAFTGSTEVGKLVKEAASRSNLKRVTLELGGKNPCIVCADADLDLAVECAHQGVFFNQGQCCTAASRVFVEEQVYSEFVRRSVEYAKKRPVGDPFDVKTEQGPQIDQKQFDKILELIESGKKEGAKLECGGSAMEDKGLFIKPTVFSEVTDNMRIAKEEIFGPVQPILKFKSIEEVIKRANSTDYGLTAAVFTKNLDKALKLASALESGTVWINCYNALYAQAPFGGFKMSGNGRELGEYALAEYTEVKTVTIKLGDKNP
The experiment can be described thus: Inhibition of recombinant human 6His-tagged ALDH1A3 expressed in Escherichia coli BL21(DE3) using acetaldehyde as substrate preincubated for 5 mins followed by substrate addition by spectrometric assay.

Experiment [2] is described as follows: Antiproliferative activity against human PN157 cells measured after 72 hrs by alamar blue assay. It is filed as functional, cell-based.
Experiment [3] deals with T2, Aldehyde dehydrogenase 1A1 (Homo sapiens, UniProt P00352).
T2 sequence (P00352 whole entry): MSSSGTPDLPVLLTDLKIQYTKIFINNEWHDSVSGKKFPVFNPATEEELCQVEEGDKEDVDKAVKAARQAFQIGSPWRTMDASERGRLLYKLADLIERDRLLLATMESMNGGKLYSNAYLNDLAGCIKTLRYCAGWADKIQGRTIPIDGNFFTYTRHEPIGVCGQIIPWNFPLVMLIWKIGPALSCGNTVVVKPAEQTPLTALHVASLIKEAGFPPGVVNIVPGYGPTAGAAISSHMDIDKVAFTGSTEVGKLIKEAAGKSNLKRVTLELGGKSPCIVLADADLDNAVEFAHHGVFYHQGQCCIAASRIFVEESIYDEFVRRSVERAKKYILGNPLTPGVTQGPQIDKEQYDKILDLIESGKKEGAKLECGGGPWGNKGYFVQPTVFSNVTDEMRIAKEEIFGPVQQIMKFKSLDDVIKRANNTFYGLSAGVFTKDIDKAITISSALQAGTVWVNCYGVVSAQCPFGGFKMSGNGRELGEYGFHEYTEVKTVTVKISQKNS
The experiment can be described thus: Inhibition of recombinant human 6His-tagged ALDH1A1 expressed in Escherichia coli BL21(DE3) using acetaldehyde as substrate preincubated for 5 mins followed by substrate addition by spectrometric assay.

Experiment [4] is described as follows: Antiproliferative activity against human MES374 cells measured after 72 hrs by alamar blue assay. It is filed as functional, cell-based.
The target in experiment [5] is T1, Retinaldehyde dehydrogenase 3. The experiment can be described thus: Competitive inhibition of recombinant human 6His-tagged ALDH1A3 expressed in Escherichia coli BL21(DE3) using varying level of acetaldehyde as substrate preincubated for 5 mins followed by substrate addition by Michaelis-Menten plot analysis.
The nature of experiment [6]: Antiproliferative activity against human MES267 cells measured after 72 hrs by alamar blue assay. It is filed as functional, cell-based.
The target in another experiment is T3, Retinal dehydrogenase 2 (Homo sapiens, UniProt O94788).
T3 sequence (O94788 whole entry): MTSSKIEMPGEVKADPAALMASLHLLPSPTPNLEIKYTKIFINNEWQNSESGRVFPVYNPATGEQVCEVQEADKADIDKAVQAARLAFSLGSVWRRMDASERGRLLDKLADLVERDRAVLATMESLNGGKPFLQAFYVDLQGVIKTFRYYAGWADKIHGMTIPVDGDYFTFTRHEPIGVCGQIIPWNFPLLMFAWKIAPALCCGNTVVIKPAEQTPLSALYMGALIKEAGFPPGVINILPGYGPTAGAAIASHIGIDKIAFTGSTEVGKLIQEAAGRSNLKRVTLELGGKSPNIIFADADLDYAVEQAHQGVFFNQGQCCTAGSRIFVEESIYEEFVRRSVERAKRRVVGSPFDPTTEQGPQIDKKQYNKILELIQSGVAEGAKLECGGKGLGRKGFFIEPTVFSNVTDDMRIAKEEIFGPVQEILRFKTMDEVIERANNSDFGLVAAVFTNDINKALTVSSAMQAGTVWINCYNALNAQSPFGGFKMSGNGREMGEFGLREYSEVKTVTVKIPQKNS
The experiment can be described thus: Inhibition of recombinant human 6His-tagged ALDH1A2 expressed in Escherichia coli BL21(DE3) using acetaldehyde as substrate preincubated for 5 mins followed by substrate addition by spectrometric assay.

pIC50, pKi: −log10 of the molar value.

On to `N#Cc1cccc(-c2ccc3nc(-c4ccccc4)cn3c2)c1`, for which the pIC50 in experiment [1] is 5.28.

`N#Cc1ccc(-c2ccc3nc(-c4ccccc4)cn3c2)cc1`: in experiment [1], the pIC50 was 5.28.

In the case of `c1ccc(-c2ccc3nc(-c4ccccc4)cn3c2)cc1`, the pIC50 in experiment [1] was 5.33; in experiment [2], 6.82; in experiment [3] it was 4.71; in experiment [4], 8.56; in experiment [6] it was 7.33; on Retinal dehydrogenase 2 it was 4.26. The pKi in experiment [5] is 6.27.

As for `Fc1ccc(-c2ccc3nc(-c4ccccc4)cn3c2)cc1`, the pIC50 in experiment [1] was 4.64; in experiment [2], 7.60; in experiment [4] it was 11.59; in experiment [6], 7.20.

Turning to `COc1ccc(-c2ccc3nc(-c4ccccc4)cn3c2)cc1`, the results for the pIC50 in experiment [1], in experiment [2] and in experiment [6] were 4.75, 5.58 and 6.18, respectively.

As to `Cc1ccc(-c2cn3cc(-c4ccc(F)cc4)ccc3n2)cc1`, the pIC50 in experiment [1] was 4.03.

Turning to `COc1ccc(-c2cn3cc(-c4ccc(OC)c(OC)c4)ccc3n2)cc1`, the pIC50 in experiment [1] is 5.08.

Consider `Clc1ccc(-c2ccc3nc(-c4ccc(Br)cc4)cn3c2)cc1`, for which, in experiment [3], the pIC50 is 4.76.

For the molecule `COc1ccc(-c2cn3cc(-c4cc(OC)cc(OC)c4)ccc3n2)cc1`, the pIC50 in experiment [1] was 5.46; in experiment [3] it was 3.70.

Turning to `COc1cccc(-c2cn3cc(-c4ccc(Cl)cc4)ccc3n2)c1`, the pIC50 in experiment [1] was 5.19; in experiment [2], 7.53; in experiment [4], 7.87; in experiment [6], 7.15.

For the molecule `CSc1ccc(-c2ccc3nc(-c4ccccc4)cn3c2)cc1`, in experiment [1], the pIC50 was 4.57.

Regarding `Clc1ccc(-c2ccc3nc(-c4ccccc4)cn3c2)cc1`, the pIC50 in experiment [1] was 4.34; in experiment [2], 7.27; in experiment [3], 4.16; in experiment [4], 10.71; in experiment [6], 7.67.

For `COc1cccc(-c2cn3cc(-c4ccc(F)cc4)ccc3n2)c1`, the pIC50 in experiment [1] was 4.67; in experiment [2], 5.82; in experiment [6], 6.46.

As to `Cc1ccc(-c2cn3cc(-c4ccccc4)ccc3n2)cc1`, the pIC50 in experiment [1] is 4.95.

With `COC(=O)c1ccc(-c2ccc3nc(-c4ccccc4)cn3c2)cc1`, the pIC50 in experiment [1] is 4.56; in experiment [2], 6.09; in experiment [3], 4.01; in experiment [6], 6.08.

As to `COc1ccc(-c2ccc3nc(-c4ccc(OC)cc4)cn3c2)cc1`, in experiment [1], the pIC50 was 4.94.
